For 20 molecules, inhibition and IC50 results are on record in patent publication US20130244999A1, “Substituted Heterocyclic Compounds” (Incyte Corporation, priority 2008, published 2013).

The structures appear in SMILES notation.

For the first test, the target named is T1, histamine H4 receptor (Homo sapiens, UniProt Q9H3N8).
T1 construct: expressed in transfected cells; host or cells: HEK293SFM cells (membrane preparation)
T1 sequence (Q9H3N8 whole entry): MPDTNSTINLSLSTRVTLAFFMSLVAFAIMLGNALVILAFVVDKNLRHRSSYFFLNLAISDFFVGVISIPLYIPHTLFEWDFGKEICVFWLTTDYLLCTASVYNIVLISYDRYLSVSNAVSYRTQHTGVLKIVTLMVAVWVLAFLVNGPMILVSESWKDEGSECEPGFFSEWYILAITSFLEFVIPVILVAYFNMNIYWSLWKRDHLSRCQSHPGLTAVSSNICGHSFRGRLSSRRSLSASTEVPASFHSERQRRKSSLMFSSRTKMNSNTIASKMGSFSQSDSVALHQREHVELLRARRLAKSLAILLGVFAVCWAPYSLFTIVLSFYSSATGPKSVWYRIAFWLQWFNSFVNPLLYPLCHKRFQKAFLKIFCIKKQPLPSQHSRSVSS
Briefly: Inhibition of histamine H4 receptor (Table A1; H4 membrane binding assay).
Conditions: not given
The protocol:
Recombinant HEK293SFM cells expressing human H1, H2, H3, H4 or mouse H4 were harvested (Packard Filtermate Harvester) in ice-cold Tris-HCl, (50 mM, pH 7.5, Sigma) with protease inhibitors (Roche) and homogenized with a Polytron homogenizer. The homogenate was centrifuged for 5 minutes at 1000 g to remove nuclei and unbroken cells. The supernatant was centrifuged at 50000 g for 30 minutes, and the resulting pellet was re-suspended in ice-cold Tris-HCl (50 mM, pH 7.5). […] Nonspecific binding was determined by inclusion of 1000× unlabeled ligands. The bound radioactivity was separated by filtration through polyethyleneimine-treated GF/B filters (Perkin Elmer). The filters were washed eight times with ice-cold Tris-HCl (50 mM, pH 7.5), and radioactivity retained on the filters was measured by liquid scintillation counting. The binding data were evaluated with Prism. […]
As usually defined, the inhibition is the share of the control response that was lost under treatment. Take `CC1Cc2ccc(-c3cccc(C(=O)N(C)C)n3)cc2CN1c1cc(N2CCN(C)CC2)nc(N)n1` (single isomer, unassigned) [Example 76, 6-{2-[2-Amino-6-(4-methylpiperazin-1-yl)pyrimidin-4-yl]-3-methyl-1,2,3,4-tetrahydroisoquinolin-7-yl}-N,N-dimethylpyridine-2-carboxamide]: the inhibition at 1 µM was determined as 66%.

Staying with this test, now noted: histamine H4 receptor; "> a" = exceeds experiment limit.
The term IC50 denotes the concentration needed to halve the response being measured. `CC1Cc2ccc(-c3ccnc(C(=O)N4CC(C#N)C4)c3)cc2CN1c1cc(N2CCN(C)CC2)nc(N)n1` (single isomer, unassigned) [Example 63B, 1-[(4-{2-[2-amino-6-(4-methylpiperazin-1-yl)pyrimidin-4-yl]-3-methyl-1,2,3,4-tetrahydroisoquinolin-7-yl}pyridin-2-yl)carbonyl]azetidine-3-carbonitrile]: the IC50 came to 0.047 µM. The same measure, in the same setting: the figure for `CC1Cc2ccc(-c3ccnc(C(=O)N4CCCC4)c3)cc2CN1c1cc(N2CCN(C)CC2)nc(N)n1` (single isomer, unassigned) [Example 64A, 4-(4-methylpiperazin-1-yl)-6-[3-methyl-7-[2-(pyrrolidin-1-ylcarbonyl)pyridin-4-yl]-3,4-dihydroisoquinolin-2(1H)-yl]pyrimidin-2-amine] is 0.116 µM; for `CC1Cc2ccc(-c3ccnc(C(=O)N4CCCC4)c3)cc2CN1c1cc(N2CCN(C)CC2)nc(N)n1` (single isomer, unassigned) [Example 64B, 4-(4-methylpiperazin-1-yl)-6-[3-methyl-7-[2-(pyrrolidin-1-ylcarbonyl)pyridin-4-yl]-3,4-dihydroisoquinolin-2(1H)-yl]pyrimidin-2-amine] it is 0.086 µM; for `CC1Cc2ccc(-c3ccnc(C(=O)N4CC[C@H](O)C4)c3)cc2CN1c1cc(N2CCN(C)CC2)nc(N)n1` (single isomer, unassigned) [Example 65A] it is 0.107 µM. Same read-out and setting: as for `CC1Cc2ccc(-c3ccnc(C(=O)N4CC[C@H](O)C4)c3)cc2CN1c1cc(N2CCN(C)CC2)nc(N)n1` (single isomer, unassigned) [Example 65B], the figure is 0.079 µM; as for `CC1Cc2ccc(-c3ccnc(C(=O)N4CC[C@H](F)C4)c3)cc2CN1c1cc(N2CCN(C)CC2)nc(N)n1` (single isomer, unassigned) [Example 66A], 0.064 µM.

Molecule `CC1Cc2ccc(-c3ccnc(C(=O)N4CC[C@H](F)C4)c3)cc2CN1c1cc(N2CCN(C)CC2)nc(N)n1` (single isomer, unassigned) [Example 66B] gave an IC50 of 0.057 µM. Take `CC1Cc2ccc(-c3ccnc(C(=O)N4CCC(N(C)C)C4)c3)cc2CN1c1cc(N2CCN(C)CC2)nc(N)n1` (single isomer, unassigned) [Example 67A, 4-[7-(2-{[3-(dimethylamino)pyrrolidin-1-yl]carbonyl}pyridin-4-yl)-3-methyl-3,4-dihydroisoquinolin-2(1H)-yl]-6-(4-methylpiperazin-1-yl)pyrimidin-2-amine]: the IC50 came out at 0.056 µM. Molecule `CC1Cc2ccc(-c3ccnc(C(=O)N4CCC(N(C)C)C4)c3)cc2CN1c1cc(N2CCN(C)CC2)nc(N)n1` (single isomer, unassigned) [Example 67B, 4-[7-(2-{[3-(dimethylamino)pyrrolidin-1-yl]carbonyl}pyridin-4-yl)-3-methyl-3,4-dihydroisoquinolin-2(1H)-yl]-6-(4-methylpiperazin-1-yl)pyrimidin-2-amine] displayed an IC50 of 0.05 µM. The same measure, in the same setting: the figure for `CC1Cc2ccc(-c3ccnc(C(=O)N(C)CCN(C)C)c3)cc2CN1c1cc(N2CCN(C)CC2)nc(N)n1` (single isomer, unassigned) [Example 68A, 4-{2-[2-amino-6-(4-methylpiperazin-1-yl)pyrimidin-4-yl]-3-methyl-1,2,3,4-tetrahydroisoquinolin-7-yl}-N-[2-(dimethylamino)ethyl]-N-methylpyridine-2-carboxamide] is 0.03 µM; for `CC1Cc2ccc(-c3ccnc(C(=O)N(C)CCN(C)C)c3)cc2CN1c1cc(N2CCN(C)CC2)nc(N)n1` (single isomer, unassigned) [Example 68B, 4-{2-[2-amino-6-(4-methylpiperazin-1-yl)pyrimidin-4-yl]-3-methyl-1,2,3,4-tetrahydroisoquinolin-7-yl}-N-[2-(dimethylamino)ethyl]-N-methylpyridine-2-carboxamide] it is 0.032 µM; for `CC1Cc2ccc(-c3ccnc(C(=O)N[C@H](C)CO)c3)cc2CN1c1cc(N2CCN(C)CC2)nc(N)n1` (single isomer, unassigned) [Example 69] it is 0.066 µM.

Take `CC1Cc2ccc(-c3ccnc(C(=O)N4CCN(C)CC4)c3)cc2CN1c1cc(N2CCN(C)CC2)nc(N)n1` (single isomer, unassigned) [Example 70, 4-[3-Methyl-7-{2-[(4-methylpiperazin-1-yl)carbonyl]pyridin-4-yl}-3,4-dihydroisoquinolin-2(1H)-yl]-6-(4-methylpiperazin-1-yl)pyrimidin-2-amine]: the IC50 was determined as 0.086 µM. As for `CCNC(=O)c1ccc(-c2ccc3c(c2)CN(c2cc(N4CCN(C)CC4)nc(N)n2)C(C)C3)nc1` (single isomer, unassigned) [Example 71, 6-{2-[2-Amino-6-(4-methylpiperazin-1-yl)pyrimidin-4-yl]-3-methyl-1,2,3,4-tetrahydroisoquinolin-7-yl}-N-ethylnicotinamide], the IC50 amounted to 0.153 µM.

In the case of `CC1Cc2ccc(-c3ccc(C(=O)N(C)C)cn3)cc2CN1c1cc(N2CCN(C)CC2)nc(N)n1` (single isomer, unassigned) [Example 72, 6-{2-[2-Amino-6-(4-methylpiperazin-1-yl)pyrimidin-4-yl]-3-methyl-1,2,3,4-tetrahydroisoquinolin-7-yl}-N,N-dimethylnicotinamide], the IC50 worked out at 0.269 µM. In turn, `CC1Cc2ccc(-c3ccc(C(=O)N4CC(O)C4)cn3)cc2CN1c1cc(N2CCN(C)CC2)nc(N)n1` (single isomer, unassigned) [Example 73, 1-[(6-{2-[2-Amino-6-(4-methylpiperazin-1-yl)pyrimidin-4-yl]-3-methyl-1,2,3,4-tetrahydroisoquinolin-7-yl}pyridin-3-yl)carbonyl]azetidin-3-ol] registered an IC50 of 0.195 µM. Same read-out and setting: as for `CC1Cc2ccc(-c3cncc(C(=O)N(C)C)c3)cc2CN1c1cc(N2CCN(C)CC2)nc(N)n1` (single isomer, unassigned) [Example 74, 5-{2-[2-Amino-6-(4-methylpiperazin-1-yl)pyrimidin-4-yl]-3-methyl-1,2,3,4-tetrahydroisoquinolin-7-yl}-N,N-dimethylnicotinamide], the figure is 0.148 µM; as for `CC1Cc2ccc(-c3cncc(C(=O)N4CC(O)C4)c3)cc2CN1c1cc(N2CCN(C)CC2)nc(N)n1` (single isomer, unassigned) [Example 75, 1-[(5-{2-[2-Amino-6-(4-methylpiperazin-1-yl)pyrimidin-4-yl]-3-methyl-1,2,3,4-tetrahydroisoquinolin-7-yl}pyridin-3-yl)carbonyl]azetidin-3-ol], 0.1 µM; as for `CCNC(=O)c1ncc(-c2ccc3c(c2)CN(c2cc(N4CCN(C)CC4)nc(N)n2)C(C)C3)cn1` (single isomer, unassigned) [Example 77, 5-{2-[2-Amino-6-(4-methylpiperazin-1-yl)pyrimidin-4-yl]-3-methyl-1,2,3,4-tetrahydroisoquinolin-7-yl}-N-ethylpyrimidine-2-carboxamide], 0.149 µM.
